According to patent US20040072862A1, “Compositions for treating ischemia-related neuronal damage” (priority 1999, published 2004):

Columns and labels:
[1] = tested on: OGD cells (retinal ganglion cells); experiment: Increase in survival of OGD cells, dose-dependent data; assay type: cell-based, Sprague-Dawley rat
Description: (§1) Untreated OGD cells were also included as controls.
(§2) The tissue was then disrupted sequentially with a 1 ml pipette, in a solution containing ovomucoid (Boehringer-Mannheim), DNase (Sigma), and bovine serum albumin (BSA; Sigma) to yield a single cell suspension. The cells were then washed in a suspension of ovomucoid/BSA.

[2] = tested on: Oxygen/Glucose Deprived RGCs; experiment: Protection of oxygen/glucose deprived (OGD) retinal ganglion cells, EC50; assay type: cell-based, Sprague-Dawley rat; details: Rattus norvegicus; compound added from 30 min prior to OGD, during OGD, and 24 and 48 h after OGD
Description: as §1, §2

Structure (SMILES): Oc1cccc2nc(Cc3nc4ccccc4[nH]3)[nH]c12 [SNX-926, 2-(benzimidazol-2-ylmethyl)benzimidazol-7-ol]
- activation at 0.001 µM ([1]; Rattus norvegicus, 0.001 μM, read-out: Percent Increase in Survival over OGD Control Cells): < 50%
- activation at 0.01 µM ([1]; Rattus norvegicus, 0.01 μM, read-out: Percent Increase in Survival over OGD Control Cells): 50 to 100%
- activation at 0.1 µM ([1]; Rattus norvegicus, 0.1 μM, read-out: Percent Increase in Survival over OGD Control Cells): > 100%
- activation at 1 µM ([1]; Rattus norvegicus, 1 μM, read-out: Percent Increase in Survival over OGD Control Cells): > 100%
- activation at 10 µM ([1]; Rattus norvegicus, 10 μM, read-out: Percent Increase in Survival over OGD Control Cells): 50 to 100%
- TI (therapeutic index) ([1]; rat, retinal ganglion cells): > 250
- EC50 [2]: 40 nM
